# Measured values: ChEMBL document CHEMBL2396531, “Hybrid molecule from O2-(2,4-dinitrophenyl)diazeniumdiolate and oleanolic acid: a glutathione S-transferase π-activated nitric oxide prodrug with selective anti-human hepatocellular carcinoma activity and improved stability” (J Med Chem, 2013)
# The source made the active and inactive calls. No cut-off for these calls is given here.
# Assays:
# Homo sapiens = species: Homo sapiens; test: Ratio of Kcat to Km for human GSTalpha
# H22 [1] = test: Antitumor activity against mouse H22 cells […] in mouse assessed as reduction in tumor growth at 153.8 umol/kg, ip after 14 days; type: functional, organism-based
# HepG2 [2] = test: Cytotoxicity against human HepG2 cells assessed as cell viability at 3 uM after 24 hrs by MTT assay in presence of hemoglobin; type: functional, cell-based
# HepG2 [3] = test: Induction of intracellular NO release in human HepG2 cells at 1.5 to 6 uM after 24 hrs by DAF-FM DA staining-based flow cytometry; type: functional, cell-based
# HepG2 [4] = test: Induction of apoptosis in human HepG2 cells at 3 uM after 24 hrs by Western blotting analysis in presence of Tiron; type: functional, cell-based
# HepG2 [5] = test: Induction of apoptosis in human HepG2 cells at 3 uM after 24 hrs by Western blotting analysis in presence of carboxy-PTIO; type: functional, cell-based
# HepG2 [6] = test: Induction of apoptosis in human HepG2 cells at 3 uM after 24 hrs by Western blotting analysis in presence of EA; type: functional, cell-based
# HepG2 [7] = test: Induction of apoptosis in human HepG2 cells assessed as ROS generation at 1.5 to 6 uM after 24 hrs by flow cytometry in presence of Tiron; type: functional, cell-based
# HepG2 [8] = test: Induction of apoptosis in human HepG2 cells assessed as increase in ROS generation at 1.5 to 6 uM after 24 hrs by flow cytometry; type: functional, cell-based
# HepG2 [9] = test: Induction of apoptosis in human HepG2 cells assessed as increase in p38 phosphorylation at 3 uM by Western blotting analysis; type: functional, cell-based; details: TDE = time-dependent effect
# HepG2 [10] = test: Induction of apoptosis in human HepG2 cells assessed as increase in JNK phosphorylation at 3 uM by Western blotting analysis; type: functional, cell-based; details: TDE = time-dependent effect
# HepG2 [11] = test: Induction of apoptosis in human HepG2 cells assessed as increase in ERK phosphorylation at 3 uM by Western blotting analysis; type: functional, cell-based; details: TDE = time-dependent effect
# HepG2 [12] = test: Induction of apoptosis in human HepG2 cells assessed as increase in p38 phosphorylation after 24 hrs by Western blotting analysis; type: functional, cell-based
# HepG2 [13] = test: Induction of apoptosis in human HepG2 cells assessed as increase in ERK phosphorylation after 24 hrs by Western blotting analysis; type: functional, cell-based
# HepG2 [14] = test: Induction of apoptosis in human HepG2 cells assessed as increase in JNK phosphorylation after 24 hrs by Western blotting analysis; type: functional, cell-based
# HepG2 [15] = test: Induction of apoptosis in human HepG2 cells assessed as reduction in Bcl2 expression at 6 uM by Western blotting analysis; type: functional, cell-based; details: TDE = time-dependent effect
# HepG2 [16] = test: Induction of apoptosis in human HepG2 cells assessed as incerase in Caspase 3 expression at 6 uM by Western blotting analysis; type: functional, cell-based; details: TDE = time-dependent effect
# HepG2 [17] = test: Induction of apoptosis in human HepG2 cells assessed as incerase in Caspase 9 expression at 6 uM by Western blotting analysis; type: functional, cell-based; details: TDE = time-dependent effect
# HepG2 [18] = test: Induction of apoptosis in human HepG2 cells assessed as incerase in Cyt c expression at 6 uM by Western blotting analysis; type: functional, cell-based; details: TDE = time-dependent effect
# HepG2 [19] = test: Induction of apoptosis in human HepG2 cells assessed as incerase in Bax expression at 6 uM by Western blotting analysis; type: functional, cell-based; details: TDE = time-dependent effect
# HepG2 [20] = test: Induction of apoptosis in human HepG2 cells assessed as reduction in Bcl2 expression after 24 hrs by Western blotting analysis; type: functional, cell-based
# HepG2 [21] = test: Induction of apoptosis in human HepG2 cells assessed as incerase in Caspase 3 expression after 24 hrs by Western blotting analysis; type: functional, cell-based
# HepG2 [22] = test: Induction of apoptosis in human HepG2 cells assessed as incerase in Cyt c expression after 24 hrs by Western blotting analysis; type: functional, cell-based
# HepG2 [23] = test: Induction of apoptosis in human HepG2 cells assessed as incerase in Caspase 9 expression after 24 hrs by Western blotting analysis; type: functional, cell-based
# HepG2 [24] = test: Induction of apoptosis in human HepG2 cells assessed as incerase in Bax expression after 24 hrs by Western blotting analysis; type: functional, cell-based
# HepG2 [25] = test: Induction of apoptosis in human HepG2 cells assessed as loss of mitochondrial membrane potential after 24 hrs by JC-1 staining-based flow cytometry; type: functional, cell-based
# HepG2 [26] = test: Induction of apoptosis in human HepG2 cells assessed as loss of mitochondrial membrane potential at 1.5 to 6 uM after 24 hrs by JC-1 staining-based flow cytometry; type: functional, cell-based
# HepG2 [27] = test: Cell cycle arrest in human HepG2 cells assessed as decrease of cells at G0/G1 phase after 24 hrs by flow cytometry; type: functional, cell-based
# HepG2 [28] = test: Cell cycle arrest in human HepG2 cells assessed as accumulation at G2/M phase after 24 hrs by flow cytometry; type: functional, cell-based
# HepG2 [29] = test: Induction of apoptosis in human HepG2 cells after 24 hrs by FITC-Annexin V/PI staining-based flow cytometry; type: functional, cell-based
# H22 [30] = test: Antitumor activity against mouse H22 cells […] in mouse assessed as reduction in tumor growth at 38.3 umol/kg, ip after 14 days; type: functional, organism-based
# H22 [31] = test: Antitumor activity against mouse H22 cells […] in ip dosed mouse assessed as reduction in tumor weight after 14 days relative to vehicle-treated control; type: functional, organism-based
# H22 [32] = test: Antitumor activity against mouse H22 cells […] in ip dosed mouse assessed as reduction in tumor volume after 14 days relative to vehicle-treated control; type: functional, organism-based
# HepG2 [33] = test: Induction of intracellular NO release in human HepG2 cells at 1.5 to 6 uM after 24 hrs by Griess assay in presence of etacrynic acid; type: functional, cell-based
# HepG2 [34] = test: Induction of intracellular NO release in human HepG2 cells at 1.5 to 6 uM after 24 hrs by Griess assay in presence of carboxy-PTIO; type: functional, cell-based
# L02 [35] = test: Induction of intracellular NO release in human LO2 cells at 6 uM by Griess assay; type: functional, cell-based; details: TDE = time-dependent effect
# HepG2 [36] = test: Induction of intracellular NO release in human HepG2 cells at 1.5 to 6 uM after 24 hrs by Griess assay in presence of hemoglobin; type: functional, cell-based
# HepG2 [37] = test: Induction of intracellular NO release in human HepG2 cells at 6 uM by Griess assay; type: functional, cell-based; details: TDE = time-dependent effect
# L02 [38] = test: Induction of intracellular NO release in human LO2 cells after 6 hrs by Griess assay; type: functional, cell-based
# HepG2 [39] = test: Induction of intracellular NO release in human HepG2 cells after 24 hrs by DAF-FM DA staining-based flow cytometry; type: functional, cell-based
# HepG2 [40] = test: Induction of intracellular NO release in human HepG2 cells after 6 hrs by Griess assay; type: functional, cell-based
# HepG2 [41] = test: Induction of intracellular NO release in human HepG2 cells at 30 uM after 6 hrs by Griess assay; type: functional, cell-based
# HepG2 [42] = test: Cytotoxicity against human HepG2 cells at 10 to 100 uM after 24 hrs by MTT assay; type: functional, cell-based
# HepG2 [43] = test: Cytotoxicity against human HepG2 cells at 5 t0 35 uM by MTT assay; type: functional, cell-based; details: TDE = time-dependent effect
# HepG2 [44] = test: Cytotoxicity against human HepG2 cells after 24 hrs by MTT assay; type: functional, cell-based
structure (smiles),measurement,setting,value
CN(CCO)/[N+]([O-])=N\Oc1cc(N2CCN(CC(=O)O[C@H]3CC[C@]4(C)[C@H]5CC=C6[C@@H]7CC(C)(C)CC[C@]7(C(=O)O[C@@H]7O[C@H](CO)[C@H](O)[C@H](O)[C@H]7O)CC[C@@]6(C)[C@]5(C)CC[C@H]4C3(C)C)CC2)c([N+](=O)[O-])cc1[N+](=O)[O-],kcat/Km,Homo sapiens,2730 M⁻¹ s⁻¹
same,Activity,H22 [1],Active
same,Activity,HepG2 [2],Active
same,Activity,HepG2 [3],Active
same,Activity,HepG2 [4],Active
same,Activity,HepG2 [5],Active
same,Activity,HepG2 [6],Active
same,Activity,HepG2 [7],Active
same,Activity,HepG2 [8],Active
same,Activity,HepG2 [9],tde
same,Activity,HepG2 [10],tde
same,Activity,HepG2 [11],tde
same,Activity,HepG2 [12],Dose-dependent effect
same,Activity,HepG2 [13],Dose-dependent effect
same,Activity,HepG2 [14],Dose-dependent effect
same,Activity,HepG2 [15],tde
same,Activity,HepG2 [16],tde
same,Activity,HepG2 [17],tde
same,Activity,HepG2 [18],tde
same,Activity,HepG2 [19],tde
same,Activity,HepG2 [20],Dose-dependent effect
same,Activity,HepG2 [21],Dose-dependent effect
same,Activity,HepG2 [22],Dose-dependent effect
same,Activity,HepG2 [23],Dose-dependent effect
same,Activity,HepG2 [24],Dose-dependent effect
same,Activity,HepG2 [25],Dose-dependent effect
same,Activity,HepG2 [26],Active
same,Activity,HepG2 [27],Dose-dependent effect
same,Activity,HepG2 [28],Dose-dependent effect
same,Activity,HepG2 [29],Dose-dependent effect
same,Activity,H22 [30],Active
same,Activity,H22 [31],Dose-dependent effect
same,Activity,H22 [32],Dose-dependent effect
same,Activity,HepG2 [33],Active
same,Activity,HepG2 [34],Active
same,Activity,L02 [35],tde
same,Activity,HepG2 [36],Active
same,Activity,HepG2 [37],tde
same,Activity,L02 [38],Dose-dependent effect
same,Activity,HepG2 [39],Dose-dependent effect
same,Activity,HepG2 [40],Dose-dependent effect
same,Activity,HepG2 [41],Active
same,Activity,HepG2 [42],Active
same,Activity,HepG2 [43],tde
same,Activity,HepG2 [44],Dose-dependent effect
